Like-named read-outs stand apart in the source and are kept apart here. Positions of bridges follow the written chain, without caps; N, C: chain ends. Non-standard residues stand in square brackets, D forms with d. Residues, ends and D or L forms follow the SMILES beside them. NMeNle = CCCC[C@H](NC)C(=O)O; NMeA = CN[C@@H](C)C(=O)O; Sar = CNCC(=O)O
Tests used:
[1] = molecular target: T1, human PD-L1 (Homo sapiens, UniProt Q9NZQ7); set-up: method as in doi:10.14205/2309-4435.2013.01.01.6
T1 construct: purchased Cisbio Bioassays SAS 64PD1PEG
T1 sequence (Q9NZQ7 19-238 limits assumed): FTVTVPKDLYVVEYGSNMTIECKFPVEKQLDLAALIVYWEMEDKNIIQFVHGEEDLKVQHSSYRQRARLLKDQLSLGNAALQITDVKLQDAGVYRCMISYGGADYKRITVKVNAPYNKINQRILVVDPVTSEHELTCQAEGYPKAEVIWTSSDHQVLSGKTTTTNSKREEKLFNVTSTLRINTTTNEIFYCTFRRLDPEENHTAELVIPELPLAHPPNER

[2] = molecular target: T1, human PD-L1; experiment: HTRF PD-1/PD-L1 Binding Assay Kit (Cisbio); settings: for BEI (binding efficiency index): BEI = −logIC50/(molecular weight/1000); for LE (ligand efficiency): LE = −1.4(logIC50)/Nheavy atoms; for LELP (ligand-efficiency-dependent lipophilicity efficiency): LELP = µHPLC logPOWpH 7.4/LE; for LLE (ligand lipophilicity efficiency): LLE = −logIC50 − µHPLC logPOWpH 7.4
[3] = tested on: hPD-L1; set-up: method as in earlier work; settings: HTRF assay; cited from earlier work
[4] = HPLC lipophilicity measurement (µHPLC logPOWpH 7.4, logD); format: physicochemical; settings: HPLC on an apHera column (retention time method); pH 7.4, HPLC method, mean ± SD
Protocol: An equilibration time of 2 min before measurements was set. Solvent “A” consisted of methanol (Merck KGaA, Darmstadt, Germany) and solvent “B” of 10 mM sodium phosphate buffer pH 7.4. […] The measurements of lipophilicity of precursors and products were performed according to the HPLC method of Donovan and Pescatore and Vraka et al.. […] Three logP values of the reference substances were taken from the literature, resulting in a mean logP value of the analyte ( μHPLC logPOWpH 7.4analyte) . Furthermore, the values were compared to calculated logP (clogP) and topological polar surface area (tPSA) values from ChemDraw 20.1 (PerkinElmer, Inc., Waltham, MA, USA) as well as clogDpH7.4 values from MarvinSketch 22.13 (ChemAxon Ltd., Budapest, Hungary).

[5] = In-solution stability in 1:1 DMSO/HEPES buffer (HPLC); settings: for remained intact: within the 20-day time period; for decomposition of the parent compound: 20 days
[6] = Metabolic stability in human liver microsomes; format: in vitro ADME; settings: incubation for 40 min
Protocol: Metabolic stability was assessed using pooled, mixed gender human liver microsomes (HLMs) (Corning, Corning, NY, USA) according to the supplied protocol. In short, 15 µL of HLM (20 mg/mL), 15 µL of NADPH regenerating system solution A (Corning, Corning, NY, USA), 3 µL of solution B (Corning, Corning, NY, USA) and 257 µL of a 1:10 dilution of 10× PBS concentrate (MORPHISTO, Offenbach am Main, Germany) were pre-incubated at 37 °C for 10 min. Aliquots were drawn 0, 10, 20, 30 and 40 min after addition of 10 µL radiotracer, subsequently quenched with the same amount of MeCN, centrifuged for 4 min at 21,500× g and analyzed by HPLC setup 3.

Compound	chromatographic logD [4]	remained intact [5]	BEI (binding efficiency index) [2]	LE (ligand efficiency) [2]	LELP (ligand-efficiency-dependent lipophilicity efficiency) [2]	LLE (ligand lipophilicity efficiency) [2]	IC50 ([2]; read-out: IC50 (This Work))	decomposition of the parent compound [5]	further results
CCCC[C@H]1C(=O)N(C)[C@@H](CCCC)C(=O)N[C@@H](CCCNC(=N)N)C(=O)N[C@H](C(=O)NCC(N)=O)CSCC(=O)N[C@@H](Cc2ccccc2)C(=O)N(C)[C@@H](C)C(=O)N[C@@H](CC(N)=O)C(=O)N2CCC[C@H]2C(=O)N[C@@H](Cc2c[nH]cn2)C(=O)N[C@@H](CC(C)C)C(=O)N(C)CC(=O)N[C@@H](Cc2c[nH]c3ccccc23)C(=O)N[C@@H](CO)C(=O)N[C@@H](Cc2c[nH]c3ccccc23)C(=O)N1C [Inhibitor 3, reference compound] ({CH2CO}-F[NMeA]NPHL[Sar]WSW[NMeNle][NMeNle]RCG-NH2; thioether N-14; N-terminus and C-terminus assumed)									IC50 ([1]; read-out: IC50 (Cisbio); HTRF assay, vendor value; cited from earlier work): 146 nM; IC50 [2]: 113 ± 45 nM
COc1cc(OCc2cccc(-c3ccccc3)c2C)cc(OC)c1CN1CCCC[C@H]1C(=O)O [Substance 1, (S)-1-(2,6-dimethoxy-4-((2-methyl-[1,1′-biphenyl]-3-yl)methoxy)benzyl)piperidine-2-carboxylic acid, reference compound]	3.16 ± 0.16	over 85%							IC50 [3]: […]
COC(=O)[C@@H]1CCCCN1Cc1c(OC)cc(OCc2cccc(-c3ccccc3)c2C)cc1OC [Substance 1a, Methyl (S)-1-(2,6-Dimethoxy-4-((2-methyl-[1,1′-biphenyl]-3-yl)methoxy)benzyl)piperidine-2-carboxylate]	4.9 ± 0.27	over 85%	10.7	0.20 kcal/mol/Heavy Atom	24.0	0.3	5760 ± 613 nM		
COc1cc(OCc2cccc(-c3ccccc3)c2C)cc(OC)c1CN1CCCC[C@H]1C(=O)OCCF [Substance 1b, 2-Fluoroethyl (S)-1-(2,6-Dimethoxy-4-((2-methyl-[1,1′-biphenyl]-3-yl)methoxy)benzyl)piperidine-2-carboxylate]	5.02 ± 0.28	over 85%	11.4	0.22 kcal/mol/Heavy Atom	22.9	0.9	1440 ± 144 nM		
COc1nc(OCc2cccc(-c3ccccc3)c2C)ccc1CNCCNC(C)=O [Substance 2, N-(2-(((2-methoxy-6-((2-methyl-[1,1′-biphenyl]-3-yl)methoxy)pyridin-3-yl)methyl)amino)ethyl)acetamide, reference compound]	3.88 ± 0.12							less than 2%	
COc1nc(OCc2cccc(-c3ccccc3)c2C)ccc1CN(C)CCNC(C)=O [Substance 2a, N-(2-(((2-Methoxy-6-((2-methyl-[1,1′-biphenyl]-3-yl)methoxy)pyridin-3-yl)methyl)(methyl)amino)ethyl)acetamide]	4.13 ± 0.16		14.7	0.28 kcal/mol/Heavy Atom	14.8	2.2	430 ± 62 nM	less than 2%	fold reduced affinity compared to lead structure 2 ([2]; ratio of HTRF IC50 values): 4.3 fold
COc1nc(OCc2cccc(-c3ccccc3)c2C)ccc1CNCCN(C)C(C)=O [Substance 2b, N-(2-(((2-Methoxy-6-((2-methyl-[1,1′-biphenyl]-3-yl)methoxy)pyridin-3-yl)methyl)amino)ethyl)-N-methylacetamide]	3.97 ± 0.13	over 85%	14.5	0.27 kcal/mol/Heavy Atom	14.4	2.3	524 ± 67 nM		
COc1nc(OCc2cccc(-c3ccccc3)c2C)ccc1CN(C)CCN(C)C(C)=O [Substance 2c, N-(2-(((2-Methoxy-6-((2-methyl-[1,1′-biphenyl]-3-yl)methoxy)pyridin-3-yl)methyl)(methyl)amino)ethyl)-N-methylacetamide]	4.28 ± 0.18		13.1	0.25 kcal/mol/Heavy Atom	17.1	1.6	1310 ± 185 nM	less than 2%	
COc1nc(OCc2cccc(-c3ccccc3)c2C)ccc1CN(CCNC(C)=O)C(=O)OCCF [Substance 2d, 2-Fluoroethyl (2-Acetamidoethyl)((2-methoxy-6-((2-methyl-[1,1′-biphenyl]-3-yl)methoxy)pyridin-3-yl)methyl)carbamate]	4.23 ± 0.17		9.9	0.19 kcal/mol/Heavy Atom	22.2	0.8	9880 ± 1390 nM	less than 2%	dose-response curve in HTRF assay ([2]; HTRF binding curves): No full dose response curves were observed
COc1nc(OCc2cccc(-c3ccccc3)c2C)ccc1CN([11CH3])CCNC(C)=O [[^11C]2a]									intact tracer [6]: ~ 90%
Atezolizumab: anti-PD-L1 antibody, positive control (MedChemExpress)									IC50 ([1]; HTRF assay, vendor value; read-out: IC50 (Cisbio); cited from earlier work): 3.84 nM; IC50 ([2]; HTRF PD-1/PD-L1 binding assay, mean ± SD, three experiments, read-out: IC50 (This Work)): 4.07 ± 0.42 nM
